Test results published in ChEMBL document CHEMBL1126534, “Role of sulfonamide moiety in non-prostanoid txa2 receptor antagonist kt2-962 : modifications of this moiety and the resulting activities” (Bioorg Med Chem Lett, 1993).

Tests used:
Thromboxane A2 receptor [1] = biological target: T1, Thromboxane A2 receptor (Rattus norvegicus, UniProt P34978); assay: Tested for antagonistic activity on isolated rat thoracic aorta (thromboxane A2 receptor) precontracted by U-46619 (3 x 10 e-8 M); format: functional, tissue-based
T1 sequence (P34978 whole entry): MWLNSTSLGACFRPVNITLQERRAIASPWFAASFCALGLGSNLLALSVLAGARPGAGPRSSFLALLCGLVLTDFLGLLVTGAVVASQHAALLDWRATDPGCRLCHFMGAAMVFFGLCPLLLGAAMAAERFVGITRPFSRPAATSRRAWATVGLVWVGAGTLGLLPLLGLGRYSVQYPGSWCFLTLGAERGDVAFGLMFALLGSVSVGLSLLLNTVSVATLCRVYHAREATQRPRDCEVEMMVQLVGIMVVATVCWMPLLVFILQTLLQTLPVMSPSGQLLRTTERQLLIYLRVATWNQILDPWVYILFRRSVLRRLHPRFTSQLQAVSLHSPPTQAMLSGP

Oryctolagus cuniculus = organism: Oryctolagus cuniculus; assay: Tested for 50% maximal aggregation of rabbit platelet-rich plasma induced by 4 x 10 e-6 M U-46619; format: functional
Thromboxane A2 receptor [2] = biological target: T1, Thromboxane A2 receptor; assay: Tested for antagonistic activity on isolated rat thoracic aorta (TXA2 receptor) precontracted by U-46619 (3 x 10 e-8 M); format: functional, tissue-based

| Compound | IC50 (Thromboxane A2 receptor [1]) [µM] | IC50 (Oryctolagus cuniculus) [µM] | IC50 (Thromboxane A2 receptor [2]) [µM] |
| --- | --- | --- | --- |
| CC(C)c1ccc2c(CCCCNS(=O)(=O)c3ccc(Cl)cc3)cc(S(=O)(=O)O)c-2cc1 | 0.0009 | – | – |
| CC(C)c1ccc2c(CCC/C=N/N=C(\S)Nc3ccc(Cl)cc3)cc(C(=O)O)c-2cc1 | > 100 | – | – |
| CC(C)c1ccc2c(CCC/C=N/NC(=O)Nc3ccc(Cl)cc3)cc(C(=O)O)c-2cc1 | > 100 | – | – |
| CC(C)c1ccc2c(CCCCCS(=O)(=O)Nc3ccccc3)cc(C(=O)O)c-2cc1 | 1.5 | – | – |
| CC(C)c1ccc2c(CCC/C=N\NC(=O)Nc3ccccc3)cc(C(=O)O)c-2cc1 | > 100 | > 1000 | – |
| CC(C)c1ccc2c(CNC(=O)CNC(=O)c3ccccc3)cc(C(=O)O)c-2cc1 | – | > 1000 | > 100 |
| CC(C)c1ccc2c(CCCCS(=O)(=O)Nc3ccc(Cl)cc3)cc(C(=O)O)c-2cc1 | 2.6 | > 1000 | – |
| CC(C)c1ccc2c(CCCC(=O)NS(=O)(=O)c3ccc(Cl)cc3)cc(S(=O)(=O)O)c-2cc1 | 54 | 56 | – |
| CC(C)c1ccc2c(CCCCS(=O)(=O)Nc3ccc(Cl)cc3)cc(S(=O)(=O)O)c-2cc1 | 0.22 | > 1000 | – |
| CC(C)c1ccc2c(CCCC(=O)NS(=O)(=O)c3ccccc3)cc(C(=O)O)c-2cc1 | > 100 | – | – |
| CC(C)c1ccc2c(CCCS(=O)(=O)Nc3ccc(Cl)cc3)cc(S(=O)(=O)O)c-2cc1 | 0.86 | – | – |
| CC(C)c1ccc2c(CCCCS(=O)(=O)Nc3ccccc3)cc(C(=O)O)c-2cc1 | 8.7 | – | – |
| CC(C)c1ccc2c(CNC(=O)CNS(=O)(=O)c3ccccc3)cc(C(=O)O)c-2cc1 | > 100 | > 1000 | – |
| CC(C)c1ccc2c(CNC(=O)CNS(=O)(=O)c3ccc(Cl)cc3)cc(C(=O)O)c-2cc1 | > 100 | – | – |
| CC(C)c1ccc2c(CNC(=O)CNC(=O)c3ccc(Cl)cc3)cc(C(=O)O)c-2cc1 | > 100 | – | – |
| CC(C)c1ccc2c(CCCC(=O)NS(=O)(=O)c3ccc(Cl)cc3)cc(C(=O)O)c-2cc1 | 19 | > 1000 | – |
| CC(C)c1ccc2c(CCCC(=O)NS(=O)(=O)c3ccccc3)cc(S(=O)(=O)O)c-2cc1 | 65 | – | – |
| CC(C)c1ccc2c(CCCCCS(=O)(=O)Nc3ccc(Cl)cc3)cc(S(=O)(=O)O)c-2cc1 | 0.86 | – | – |
| CC(C)c1ccc2c(CCCS(=O)(=O)Nc3ccccc3)cc(S(=O)(=O)O)c-2cc1 | 8.7 | – | – |
| CC(C)c1ccc2c(CCCCCS(=O)(=O)Nc3ccccc3)cc(S(=O)(=O)O)c-2cc1 | 1.4 | – | – |
| CC(C)c1ccc2c(CCC/C=N/N=C(\S)Nc3ccccc3)cc(C(=O)O)c-2cc1 | 590 | > 1000 | – |
| CC(C)c1ccc2c(CCCS(=O)(=O)Nc3ccc(Cl)cc3)cc(C(=O)O)c-2cc1 | 9.1 | – | – |
| CC(C)c1ccc2c(CCCCCS(=O)(=O)Nc3ccc(Cl)cc3)cc(C(=O)O)c-2cc1 | 1.7 | – | – |
| CC(C)c1ccc2c(CCCCS(=O)(=O)Nc3ccccc3)cc(S(=O)(=O)O)c-2cc1 | 1.5 | – | – |
| CC(C)c1ccc2c(CCCS(=O)(=O)Nc3ccccc3)cc(C(=O)O)c-2cc1 | 12 | – | – |
| O=C(O)COc1ccc(CCNS(=O)(=O)c2ccccc2)cc1 [SULOTROBAN] | 1.5 | – | – |
